The values below come from patent US10456509B2, “Chlorhexidine gluconate compositions, resin systems and articles” (3M INNOVATIVE PROPERTIES COMPANY, priority 2012, dated 2019).

A short description of data set [1]: Solubility Screening of CHG in vehicles, Vacuum Method. The method, then: Solubility Screening. Screening tests were conducted to determine the solubility of CHG in a wide variety of vehicles. Tests were conducted using the Vacuum Method and the Lyophilizing Method.
Vacuum Method. […] The flask was put in a 60° C. oil bath and stirred with a magnetic stir bar. […] In those cases, after nearly all the water was removed, additional vehicle was added to bring the final weight to 50 grams. The resulting concentration of CHG and residual water were determined. Also, the final state of the solution was qualitatively evaluated to determine if the mixture was transparent and apparently homogenous, or clearly inhomogeneous.

Data set [2] can be described thus: Solubility of lyophilized CHG in vehicles, Lyophilization Method. To be noted: for Apparent solubility 2 minutes / Apparent solubility 2 hours 50° C. / Apparent solubility >24 hours / Apparent solubility after cooling / Apparent solubility immediate: 0.2 wt. % lyophilized CHG; for Apparent solubility 2 minutes: after 2 minutes; for Apparent solubility 2 hours 50° C.: after 2 hours in 50° C. oven; for Apparent solubility >24 hours: after 24 hours; for Apparent solubility after cooling: after cooling to room temperature; for Apparent solubility immediate: observed immediately after mixing. How it is done: The Lyophilization Method. Lyophilized CHG was prepared by freeze-drying the aqueous CHG solution (20 wt. % solution in water, obtained from Xttrium Laboratories Inc., Chicago, Ill.).
For lower viscosity vehicles, a 5 ml sample of the non-aqueous vehicle of interest was measured into a glass vial. For higher viscosity vehicles that were difficult to transfer by volume, a 5 gm sample was weighed into the vial. Next, 0.01 g of lyophilized CHG was added to the vial. The sample was capped and mixed by shaking for 30 seconds. The sample was immediately observed and then observed again after 2 minutes and again after 24 hours. After 24 hours, the sample was placed in a 50° C. oven for 2 hours and then removed and immediately observed. These samples were allowed to cool to room temperature and a final observation was made.
CHG solutions. The solutions containing CHG were either a 20 wt. % aqueous solution of CHG or a 10-20% w/w solution of CHG in a non-aqueous vehicle. The non-aqueous solutions were prepared by freeze drying the aqueous CHG solution to produce lyophilized CHG. Finely divided, lyophilized CHG was then solubilized in a non-aqueous vehicle at room temperature with continuous stirring for eight hours.

As for Isolaureth-10, in data set [1], the “Final State” value was “Inhomogeneous”. For the same substance, in data set [2], the “Apparent solubility 2 minutes” value was “no”, the “Apparent solubility 2 hours 50° C.” value is “soluble”, the “Apparent solubility >24 hours” value was “partial” and the “Apparent solubility after cooling” value is “soluble”. For the same substance, the Apparent solubility immediate entry in data set [2] is listed as “no”.
For Oleth-2, in data set [2], the “Apparent solubility 2 minutes” value is on record as “no”, the “Apparent solubility 2 hours 50° C.” value is recorded as “partial”, the “Apparent solubility >24 hours” value is recorded as “no” and the “Apparent solubility after cooling” value was “partial”. In addition, the Apparent solubility immediate result in data set [2] is given as “no”.
PEG-20 glyceryl Triisostearate: in data set [2], the “Apparent solubility 2 minutes” value is recorded as “partial”, the “Apparent solubility 2 hours 50° C.” value was “partial”, the “Apparent solubility >24 hours” value was “partial” and the “Apparent solubility after cooling” value is given as “partial”. For the same substance, the Apparent solubility immediate result in data set [2] is on record as “no”.
As for PPG-5 Ceteth-20, the “Final State” value in data set [1] is listed as “Inhomogeneous”. Further, in data set [2], the “Apparent solubility 2 minutes” value is “no”, the “Apparent solubility 2 hours 50° C.” value was “soluble”, the “Apparent solubility >24 hours” value is listed as “partial” and the “Apparent solubility after cooling” value is “soluble”. Besides, the Apparent solubility immediate result in data set [2] is “no”.
In the case of Polyglycerol-3 Diisostearate, in data set [2], the “Apparent solubility 2 minutes” value is recorded as “no”, the “Apparent solubility 2 hours 50° C.” value is listed as “soluble”, the “Apparent solubility >24 hours” value is listed as “soluble” and the “Apparent solubility after cooling” value is given as “partial”. Moreover, the Apparent solubility immediate entry in data set [2] is reported as “no”.
Regarding sorbitan trioleate, the “solubility of CHG in vehicle (dissolution experiments using lyophilized CHG)” value in data set [2] (lyophilized CHG) is on record as “limited”.
